Target: Hematopoietic prostaglandin D synthase (Homo sapiens, UniProt O60760)
Assay: In Vitro GST Activity Assay
Conditions: pH 7.2; 22 °C
Method: The PGDS glutathione-S-transferase (GST) activity was measured by using MonoChloroBimane (MCB) as a chromogenic substrate. The assay was run at 384-well format in reaction buffer containing enzyme and test compound. Then MCB and GSH were added for further incubation. After reaction was stopped, the fluorescence was measured (excitation: 390 nm; emission: 478 nm).

Sequence of Hematopoietic prostaglandin D synthase (O60760 whole entry): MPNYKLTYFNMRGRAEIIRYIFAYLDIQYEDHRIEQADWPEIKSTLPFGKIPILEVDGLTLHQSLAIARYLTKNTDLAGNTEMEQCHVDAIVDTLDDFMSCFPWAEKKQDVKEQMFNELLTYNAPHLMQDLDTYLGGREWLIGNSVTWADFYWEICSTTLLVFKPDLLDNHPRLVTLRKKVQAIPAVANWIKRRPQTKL

Row | IC50 | Compound
1 | 45 µM | CCOC(=O)c1cc(OC)c(-c2ccccc2)nn1 [ethyl 5-methoxy-6-phenylpyridazine-3-carboxylate]
2 | 3.8 µM | COc1ccc(-c2cc3c(nn2)-c2ccccc2C3=O)cc1

— BindingDB's records for doi:10.1021/jm701509k (Astrazeneca, 2008)
